Experimental data from patent publication US20230226095A1, “METHODS AND COMPOSITIONS FOR TREATING C[…]” (The Children's Medical Center Corporation, priority 2020, published 2023).

Legend:
lung tissue Treg cells = experiment: Daily intra-tracheal instillation of Poly I:C, flow cytometry of lung T cells; assay type: in vivo, mice
From the text: To investigate the mechanism by which Notch4 licenses lung tissue inflammation in viral respiratory infections, its role in Poly I:C-induced airway inflammation was first examined. Poly I:C stimulates Toll like receptor 3 and the downstream viral RNA sensors cytoplasmic retinoic acid-inducible gene I (RIG-I) and melanoma differentiation-associated protein 5 (MDA5), thus providing a proxy model of RNA viral infections (Broggi et al., 2020; Iwasaki and Pillai, 2014; Kato et al., 2006). […] Treg cell specific deletion of Notch4 using a Foxp3-driven Cre recombinase (Foxp3YFPCre) and floxed Notch4 allele (Foxp3YFPCreNotch4Δ/Δ) protected the mice from the weight loss induced by the Poly I:C treatment (data not shown).
(§1) Polyinosinic-polycytidylic acid (Poly I:C) mouse model. Mice were treated intratracheally with 2.5 mg/kg of Poly I:C HMW (InvivoGen) daily for six consecutive days. The weight of the mice was recorded daily upon application of the Poly I:C. The mice were subjected to airway hyperresponsiveness at day 7, then euthanized and analyzed. For blockading amphiregulin, mice were treated with a peptide spanning amino acids 91140 of the middle region of the human amphiregulin preproprotein (amphiregulin91-140 peptide; Mybiosource). The peptide was given intratracheally at 10 µg/ml in PBS in a final volume of 100 µl. For the amphiregulin neutralizing antibody tests, the mice were given intraperitoneally 20 µg of goat anti-mouse amphiregulin mAb (clone AF989; R&D systems) or isotype control mAb (clone AB-108-C; R&D systems) daily for the duration of the experiment.

Treg cells = experiment: In vitro induction of Notch4 expression in Treg cells; assay type: cell-based; settings: Treg cells from PBS or Poly I:C-treated mice
Method: To further elucidate the mechanisms of Notch4 induction in Treg cells, in vitro studies were conducted to examine the capacity of Poly I:C and cytokine treatment to upregulate Notch4 expression in Treg cells isolated from PBS or Poly I:C-treated mice.

lung macrophages = experiment: Lung macrophage M1/M2 polarization in vitro upon Poly I:C treatment; assay type: cell-based, mice; settings: in vitro treatment with Poly I:C
Method: Regulatory T-cell co-cultures with macrophages. Macrophages cells are isolated from lungs of Poly I:C-treated mice. Macrophages were isolated based on CD45^+ F4/80^+ MHCII^+. Macrophages were then co-cultured (at 1:1 concentration) with lungs Treg cells from Foxp3^YFPCre or Foxp3^YFPCreNotch4^Δ/Δ mice Poly I:C-treated mice. Cells were treated with Poly I:C at a concentration of 10 ug/ml for three days. After 72 h, M1 (F4/80^+ MHCII^+ CD68^+ CD80^+CD86^+) and M2 (F4/80^+ MHCII^+ CD163^+ CD206^+) polarization was measured by flow cytometric analysis.
M1 and M2 gating strategy. M1 was defined as follows: CD45^+CD4^-F4/80^+MHCII^+ CD68^+ CD80^+CD86^+ while M2 macrophages were defined as follows: CD45^+CD4^-F4/80^+ MHCII+CD163+CD206+.

[1] = tested on: Foxp3YFPCre mice treated with Poly I:C; experiment: Recombinant amphiregulin therapy in Poly I:C-induced lung inflammation; assay type: in vivo; settings: data not shown
From the text: To establish the role of amphiregulin in the protection against lung inflammation induced by Notch4 depletion, the capacity of recombinant amphiregulin therapy to rescue Poly I:C-induced lung inflammation was examined. […] Recombinant amphiregulin also reversed the skewing of lung macrophages towards an M1 phenotype upon in vitro treatment with Poly I:C (FIG. 7H), mirroring the same effect of Foxp3YFPCreNotch4Δ/Δ Treg cells (data not shown).
as §1

[2] = daily intra-tracheal for 6 consecutive days

Molecule | expression of Hippo pathway effector Yap in lung tissue Treg cells (lung tissue Treg cells; Poly I:C treatment) | expression of Wnt pathway effector beta-Catenin in lung tissue Treg cells (lung tissue Treg cells; Poly I:C treatment) | expression of Notch4 on CD4+ Teff cells (lung tissue Treg cells; [2]) | frequencies and absolute numbers of Notch4 expressing lung tissue Treg cells and MFI of Notch4 (lung tissue Treg cells; [2]) | Notch4 expression in lung Treg cells (Treg cells) | Notch4 expression in splenic Treg cells (Treg cells) | skewing of lung macrophages towards an M1 phenotype (lung macrophages) | epithelial barrier function ([1]; Poly I:C treatment) | inflammatory responses induced by Poly I:C treatment [1] | weight loss induced by Poly I:C treatment [1]
Polyinosinic-polycytidylic acid [Poly I:C] | potently induced | unchanged | minimal expression | sharp progressive increase | increased Notch4 expression | not splenic | – | – | – | –
recombinant amphiregulin: recombinant epidermal growth factor-like cytokine amphiregulin, necessary for tissue repair (protein, UniProt P15514 101-187, looked up) Amphiregulin: SVRVEQVVKPPQNKTESENTSDKPKRKKKGGKNGKNRRNRKKKNPCNAEFQNFCIHGECKYIEHLEAVTCKCQQEYFGERCGEKSMK | – | – | – | – | – | – | reversed | restoration of an intact epithelial barrier function | largely abrogated | largely abrogated
